Here are results for seven compounds from patent US10988523B2, “Modified lipidated Relaxin B chain peptides and their therapeutic use” (Sanofi, priority 2018, dated 2021).

*1 amine or outer side, *2 acyl side, *3 side chain or, on linkers, in order; H or OH if unused. Where a SMILES comes first, the peptide text is derived from it. Side-chain parts run from the residue outwards. [ ]: non-standard residue; d: D form. The star is where a group is joined. X3 = CCCCCCCCCCCCCCCC(=O)N[C@@H](CCC(=O)N[C@@H](CCC(=O)N[C@@H](CCC(=O)N[C@@H](CCC(=O)NCCCC[C@H](NC(=O)CCC(=O)NCCCOCCOCCOCCCNC(=O)CCC(=O)NCCCOCCOCCOCCCN*)C(N)=O)C(=O)O)C(=O)O)C(=O)O)C(=O)O; X5 = CCCCCCCCCCCCCCCC(=O)N[C@@H](CCC(=O)NCCCC[C@H](NC(=O)CC[C@H](NC(=O)CC[C@H](NC(=O)CC[C@H](NC(=O)CCC(=O)NCCCOCCOCCOCCCNC(=O)CCC(=O)NCCCOCCOCCOCCCN*)C(=O)O)C(=O)O)C(=O)O)C(N)=O)C(=O)O; Lys(Me3) = C[N+](C)(C)CCCC[C@H](N)C(=O)O; Arg(Me2s) = CN=C(NC)NCCC[C@H](N)C(=O)O; γGlu = O=C(O)[C@H](CCC(=O)[*:2])N[*:1]; Arg(Me) = CNC(=N)NCCC[C@H](N)C(=O)O; Stearoyl = CCCCCCCCCCCCCCCCCC(=O)*; Palmitoyl = CCCCCCCCCCCCCCCC(=O)*; αMeK = C[C@](N)(CCCCN)C(=O)O; Nle = CCCC[C@H](N)C(=O)O; AEEA = NCCOCCOCC(=O)O; Aib = CC(C)(N)C(=O)O

This assay deals with T1, RXFP1 (Homo sapiens, UniProt Q9HBX9).
T1 construct: OVCAR5 cells expressing endogenous RXFP1; endogenous in cells; host or cells: OVCAR5 cells
T1 sequence (Q9HBX9 1-757): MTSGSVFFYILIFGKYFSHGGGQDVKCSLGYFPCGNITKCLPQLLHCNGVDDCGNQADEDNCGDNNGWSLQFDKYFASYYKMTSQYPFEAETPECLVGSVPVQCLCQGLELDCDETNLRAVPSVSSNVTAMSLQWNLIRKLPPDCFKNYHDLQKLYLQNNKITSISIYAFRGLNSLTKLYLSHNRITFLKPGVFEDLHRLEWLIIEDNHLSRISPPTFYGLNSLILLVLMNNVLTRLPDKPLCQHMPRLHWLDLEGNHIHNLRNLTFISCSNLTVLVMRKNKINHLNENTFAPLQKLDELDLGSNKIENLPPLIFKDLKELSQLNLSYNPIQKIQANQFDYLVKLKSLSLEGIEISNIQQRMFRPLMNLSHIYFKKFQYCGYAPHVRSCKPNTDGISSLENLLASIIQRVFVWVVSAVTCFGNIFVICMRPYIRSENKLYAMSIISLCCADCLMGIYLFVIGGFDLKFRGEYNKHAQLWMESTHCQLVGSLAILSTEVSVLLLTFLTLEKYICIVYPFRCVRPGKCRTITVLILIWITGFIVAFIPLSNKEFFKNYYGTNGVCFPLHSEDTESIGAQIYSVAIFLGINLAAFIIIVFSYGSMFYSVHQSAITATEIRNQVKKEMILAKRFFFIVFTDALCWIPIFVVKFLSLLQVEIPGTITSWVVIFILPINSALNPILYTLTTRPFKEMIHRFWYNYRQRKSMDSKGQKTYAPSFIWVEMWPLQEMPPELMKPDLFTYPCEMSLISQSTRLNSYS
In words: OVCAR5 cAMP assay (HTRF), RXFP1 agonist activity. Format: cell-based. To be noted: for EC50: OVCAR5 cells, cAMP HTRF, read-out: EC50 (nM), OVCAR 5 cells (cAMP); for Emax: OVCAR-5, maximal cAMP relative to H2-relaxin maximum (100%), read-out: EMax, OVCAR 5 cells (cAMP). Summed up: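 cAMP accumulation readout: after 1 mM IBMX for 40 min, endogenous-RXFP1 OVCAR5 cells got rising peptide concentrations without FCS, 30 min, 37° C, then lysis with HTRF cAMP reagents. Nonlinear regression gave EC50; Emax expressed relative to H2-relaxin maximum, same occasion.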
A general note: cAMP levels reflect the balance of adenylyl cyclase and phosphodiesterase activity.

Consider `CCCCCCCCCCCCCCCC(=O)N[C@@H](CCC(=O)N[C@@H](CCC(=O)N[C@@H](CCC(=O)N[C@@H](CCC(=O)NCCOCCOCC(=O)NCCOCCOCC(=O)NCCOCCOCC(=O)NCCOCCOCC(=O)NCCCC[C@H](NC(=O)[C@H](CCCCNC(C)=O)NC(=O)[C@H](CCCC[N+](C)(C)C)NC(=O)[C@H](CCCNC(=N)NC)NC(=O)[C@](C)(CCCCN)NC(=O)[C@H](CO)NC(=O)[C@H](Cc1c[nH]c2ccccc12)NC(=O)[C@@H](NC(=O)[C@H](CO)NC(=O)[C@H](CCCC)NC(=O)CNC(=O)[C@H](CCC(=O)O)NC(=O)C(C)(C)NC(=O)C(C)(C)NC(=O)[C@@H](NC(=O)[C@H](CCCCNC(C)=O)NC(=O)[C@H](C)NC(=O)[C@H](CCCNC(=N)N)NC(=O)[C@@H](NC(=O)[C@H](CCCCN)NC(=O)[C@H](CCC(=O)O)NC(=O)[C@H](CCCNC(=N)N)NC(=O)CNC(=O)[C@H](CCC(=O)O)NC(=O)[C@H](CC(C)C)NC(C)=O)C(C)C)[C@@H](C)CC)[C@@H](C)O)C(N)=O)C(=O)O)C(=O)O)C(=O)O)C(=O)O` [compound 141] (Ac-LEGREKVRAK(Ac)I[Aib][Aib]EG[Nle]STWS[αMeK][Arg(Me)][Lys(Me3)]K(Ac)K([AEEA-AEEA-AEEA-AEEA-γGlu-γGlu-γGlu-γGlu-Palmitoyl])-NH2), for which the 50% effective concentration (EC50) came out at 0.16 nM and the Emax was found to be 87%.
For `CCCCCCCCCCCCCCCC(=O)N[C@@H](CCC(=O)N[C@@H](CCC(=O)N[C@@H](CCC(=O)N[C@@H](CCC(=O)NCCCC[C@H](NC(=O)CCC(=O)NCCCOCCOCCOCCCNC(=O)CCC(=O)NCCCOCCOCCOCCCNC(=O)[C@H](CCCCNC(C)=O)NC(=O)[C@H](CCCCN)NC(=O)[C@H](CCCNC(=N)N)NC(=O)[C@](C)(CCCCN)NC(=O)[C@H](CO)NC(=O)[C@H](Cc1ccccc1)NC(=O)[C@@H](NC(=O)[C@H](CO)NC(=O)[C@H](CCCC)NC(=O)CNC(=O)[C@H](CCC(=O)O)NC(=O)C(C)(C)NC(=O)C(C)(C)NC(=O)[C@@H](NC(=O)[C@H](CCCCNC(C)=O)NC(=O)[C@H](C)NC(=O)[C@H](CCCNC(=N)N)NC(=O)[C@@H](NC(=O)[C@H](CCCCN)NC(=O)[C@H](CCC(=O)O)NC(=O)[C@H](CCCNC(=N)N)NC(=O)CNC(=O)[C@H](CCC(=O)O)NC(=O)[C@H](CC(C)C)NC(C)=O)C(C)C)[C@@H](C)CC)[C@@H](C)O)C(N)=O)C(=O)O)C(=O)O)C(=O)O)C(=O)O` [compound 142] (Ac-LEGREKVRAK(Ac)I[Aib][Aib]EG[Nle]STFS[αMeK]RKK(Ac)-X3) the same measures were 0.02 nM and 91%.
On the same counts, the results for `CCCCCCCCCCCCCCCC(=O)N[C@@H](CCC(=O)N[C@@H](CCC(=O)N[C@@H](CCC(=O)N[C@@H](CCC(=O)NCCCC[C@H](NC(=O)COCCOCCNC(=O)COCCOCCNC(=O)COCCOCCNC(=O)COCCOCCNC(=O)[C@H](CCCCNC(C)=O)NC(=O)[C@H](CCCCN)NC(=O)[C@H](CCCNC(=N)N)NC(=O)[C@](C)(CCCCN)NC(=O)[C@H](CO)NC(=O)[C@H](Cc1ccccc1)NC(=O)[C@@H](NC(=O)[C@H](CO)NC(=O)[C@H](CCCC)NC(=O)CNC(=O)[C@H](CCC(=O)O)NC(=O)C(C)(C)NC(=O)C(C)(C)NC(=O)[C@@H](NC(=O)[C@H](CCCCNC(C)=O)NC(=O)[C@H](C)NC(=O)[C@H](CCCNC(=N)N)NC(=O)[C@@H](NC(=O)[C@H](CCCCN)NC(=O)[C@H](CCC(=O)O)NC(=O)[C@H](CCCNC(=N)N)NC(=O)CNC(=O)[C@H](CCC(=O)O)NC(=O)[C@H](CC(C)C)NC(C)=O)C(C)C)[C@@H](C)CC)[C@@H](C)O)C(N)=O)C(=O)O)C(=O)O)C(=O)O)C(=O)O` [compound 143] (Ac-LEGREKVRAK(Ac)I[Aib][Aib]EG[Nle]STFS[αMeK]RKK(Ac)[AEEA][AEEA][AEEA][AEEA]K([γGlu-γGlu-γGlu-γGlu-Palmitoyl])-NH2) are 0.4 nM and 88%.
As to `CCCCCCCCCCCCCCCC(=O)N[C@@H](CCC(=O)N[C@@H](CCC(=O)N[C@@H](CCC(=O)NCCCC[C@H](NC(=O)COCCOCCNC(=O)COCCOCCNC(=O)COCCOCCNC(=O)COCCOCCNC(=O)[C@H](CCCCNC(C)=O)NC(=O)[C@H](CCCCN)NC(=O)[C@H](CCCNC(=N)N)NC(=O)C(C)(C)NC(=O)[C@H](CO)NC(=O)[C@H](Cc1ccccc1)NC(=O)[C@@H](NC(=O)[C@H](CO)NC(=O)[C@H](CCCC)NC(=O)CNC(=O)[C@H](CCC(=O)O)NC(=O)C(C)(C)NC(=O)C(C)(C)NC(=O)[C@@H](NC(=O)[C@H](CCCCNC(C)=O)NC(=O)[C@H](C)NC(=O)[C@H](CCCNC(=N)N)NC(=O)[C@@H](NC(=O)[C@H](CCCCN)NC(=O)[C@H](CCC(=O)O)NC(=O)[C@H](CCCNC(=N)N)NC(=O)CNC(=O)[C@H](CCC(=O)O)NC(=O)[C@H](CC(C)C)NC(C)=O)C(C)C)[C@@H](C)CC)[C@@H](C)O)C(N)=O)C(=O)O)C(=O)O)C(=O)O` [compound 144] (Ac-LEGREKVRAK(Ac)I[Aib][Aib]EG[Nle]STFS[Aib]RKK(Ac)[AEEA][AEEA][AEEA][AEEA]K([γGlu-γGlu-γGlu-Palmitoyl])-NH2), the maximal response (Emax) is 94%.
For the compound `CCCCCCCCCCCCCCCC(=O)N[C@@H](CCC(=O)NCCCC[C@H](NC(=O)CC[C@H](NC(=O)CC[C@H](NC(=O)CC[C@H](NC(=O)CCC(=O)NCCCOCCOCCOCCCNC(=O)CCC(=O)NCCCOCCOCCOCCCNC(=O)[C@H](CCCCNC(C)=O)NC(=O)[C@H](CCCCN)NC(=O)[C@H](CCCNC(=N)N)NC(=O)[C@](C)(CCCCN)NC(=O)[C@H](CO)NC(=O)[C@H](Cc1ccccc1)NC(=O)[C@@H](NC(=O)[C@H](CO)NC(=O)[C@H](CCCC)NC(=O)CNC(=O)[C@H](CCC(=O)O)NC(=O)C(C)(C)NC(=O)C(C)(C)NC(=O)[C@@H](NC(=O)[C@H](CCCCNC(C)=O)NC(=O)[C@H](C)NC(=O)[C@H](CCCNC(=N)N)NC(=O)[C@@H](NC(=O)[C@H](CCCCN)NC(=O)[C@H](CCC(=O)O)NC(=O)[C@H](CCCNC(=N)N)NC(=O)CNC(=O)[C@H](CCC(=O)O)NC(=O)[C@H](CC(C)C)NC(C)=O)C(C)C)[C@@H](C)CC)[C@@H](C)O)C(=O)O)C(=O)O)C(=O)O)C(N)=O)C(=O)O` [compound 146] (Ac-LEGREKVRAK(Ac)I[Aib][Aib]EG[Nle]STFS[αMeK]RKK(Ac)-X5), the 50% effective concentration (EC50) was determined as 0.02 nM and the Emax was found to be 89%.
With `CCCCCCCCCCCCCCCC(=O)N[C@@H](CCC(=O)N[C@@H](CCC(=O)N[C@@H](CCC(=O)N[C@@H](CCC(=O)NCCOCCOCC(=O)NCCOCCOCC(=O)NCCOCCOCC(=O)NCCOCCOCC(=O)NCCCC[C@H](NC(=O)[C@H](CCCCNC(C)=O)NC(=O)[C@H](CCCCN)NC(=O)[C@H](CCCNC(=N)N)NC(=O)C(C)(C)NC(=O)[C@H](CO)NC(=O)[C@H](Cc1ccccc1)NC(=O)[C@@H](NC(=O)[C@H](CO)NC(=O)[C@H](CCCC)NC(=O)CNC(=O)[C@H](CCC(=O)O)NC(=O)C(C)(C)NC(=O)C(C)(C)NC(=O)[C@@H](NC(=O)[C@H](CCCCNC(C)=O)NC(=O)[C@H](C)NC(=O)[C@H](CCCNC(=N)N)NC(=O)[C@@H](NC(=O)[C@H](CCCCN)NC(=O)[C@H](CCC(=O)O)NC(=O)[C@H](CCCNC(=N)N)NC(=O)CNC(=O)[C@H](CCC(=O)O)NC(=O)[C@H](CC(C)C)NC(C)=O)C(C)C)[C@@H](C)CC)[C@@H](C)O)C(N)=O)C(=O)O)C(=O)O)C(=O)O)C(=O)O` [compound 147] (Ac-LEGREKVRAK(Ac)I[Aib][Aib]EG[Nle]STFS[Aib]RKK(Ac)K([AEEA-AEEA-AEEA-AEEA-γGlu-γGlu-γGlu-γGlu-Palmitoyl])-NH2), the maximal effect (Emax) is 86%.
Same read-out and setting: with `CCCCCCCCCCCCCCCCCC(=O)N[C@@H](CCC(=O)N[C@@H](CCC(=O)N[C@@H](CCC(=O)NCCOCCOCC(=O)NCCOCCOCC(=O)NCCOCCOCC(=O)NCCCC[C@H](NC(=O)[C@H](CCCCNC(C)=O)NC(=O)[C@H](CCCCN)NC(=O)[C@H](CCCNC(=NC)NC)NC(=O)C(C)(C)NC(=O)[C@H](CO)NC(=O)[C@H](Cc1c[nH]c2ccccc12)NC(=O)[C@@H](NC(=O)[C@H](CO)NC(=O)[C@H](CCCC)NC(=O)CNC(=O)[C@H](CCC(=O)O)NC(=O)C(C)(C)NC(=O)C(C)(C)NC(=O)[C@@H](NC(=O)[C@H](CCCCNC(C)=O)NC(=O)[C@H](C)NC(=O)[C@H](CCCNC(=N)N)NC(=O)[C@@H](NC(=O)[C@H](CCCCN)NC(=O)[C@H](CCC(=O)O)NC(=O)[C@H](CCCNC(=N)N)NC(=O)CNC(=O)[C@H](CCC(=O)O)NC(=O)[C@H](CC(C)C)NC(C)=O)C(C)C)[C@@H](C)CC)[C@@H](C)O)C(N)=O)C(=O)O)C(=O)O)C(=O)O` [compound 148] (Ac-LEGREKVRAK(Ac)I[Aib][Aib]EG[Nle]STWS[Aib][Arg(Me2s)]KK(Ac)K([AEEA-AEEA-AEEA-γGlu-γGlu-γGlu-Stearoyl])-NH2) the figure was 94%.

By EC50 is commonly meant the midpoint of the concentration-response curve. A word on the Emax: it is the maximal effect, on the per cent scale that the assay sets.
